# Results as given in publication PMC6010102, “N-thioalkylcarbazoles derivatives as new anti-proliferative agents: synthesis, characterisation and molecular mechanism evaluation” (Journal of Enzyme Inhibition and Medicinal Chemistry, 2018).
# Tests used:
# HeLa cells = experiment: TUNEL assay in HeLa cells; format: cell-based, human; details: concentration equal to IC50, 24 h
# Method: Apoptosis was detected by the TUNEL assay, according to the guidelines of the manufacturer (CF™488A TUNEL Assay Apoptosis Detection Kit, Biotium, Hayward, CA)[8]. Briefly, cells were grown on glass coverslips and, after treatment, they were washed trice with PBS, then methanol-fixed at −20 °C for 15 min. Fixed cells were washed trice with 0.01% (V/V) Triton X-100 in PBS and incubated with 100 µL of TUNEL equilibration buffer for 5 min. After its removal, 50 µL of TUNEL reaction mixture containing 1 µL of terminal deoxynucleotidyl transferase (TdT) were added to each sample and incubated in a dark and humidified chamber for 2 h at 37 °C. Samples were washed trice with ice-cold phosphate-buffered saline (PBS) containing 0.1% Triton X-100 and 5 mg/mL bovine serum albumin (BSA). 2-(4-Amidinophenyl)-6-indolecarbamidine dihydrochloride (DAPI) (0.2 µg/mL) counterstain was performed (10 min, 37 °C, dark and humidified conditions). After three additional washes with cold PBS, one drop of mounting solution was added, then they were observed and imaged under a fluorescence microscope (Leica DM 6000, Leica, Frankfurt am Main, Germany) (20× magnification) with excitation/emission wavelength maxima of 490 nm/515 nm (CF^TM488A) or 350 nm/460 nm (DAPI). Representative fields were shown. The experiments were repeated three times.
# hTopoII = hTopoII (Homo sapiens, UniProt P11388); experiment: Human topoisomerase II decatenation assay; format: biochemical; details: 10 µM
# Chain of hTopoII (P11388 whole entry): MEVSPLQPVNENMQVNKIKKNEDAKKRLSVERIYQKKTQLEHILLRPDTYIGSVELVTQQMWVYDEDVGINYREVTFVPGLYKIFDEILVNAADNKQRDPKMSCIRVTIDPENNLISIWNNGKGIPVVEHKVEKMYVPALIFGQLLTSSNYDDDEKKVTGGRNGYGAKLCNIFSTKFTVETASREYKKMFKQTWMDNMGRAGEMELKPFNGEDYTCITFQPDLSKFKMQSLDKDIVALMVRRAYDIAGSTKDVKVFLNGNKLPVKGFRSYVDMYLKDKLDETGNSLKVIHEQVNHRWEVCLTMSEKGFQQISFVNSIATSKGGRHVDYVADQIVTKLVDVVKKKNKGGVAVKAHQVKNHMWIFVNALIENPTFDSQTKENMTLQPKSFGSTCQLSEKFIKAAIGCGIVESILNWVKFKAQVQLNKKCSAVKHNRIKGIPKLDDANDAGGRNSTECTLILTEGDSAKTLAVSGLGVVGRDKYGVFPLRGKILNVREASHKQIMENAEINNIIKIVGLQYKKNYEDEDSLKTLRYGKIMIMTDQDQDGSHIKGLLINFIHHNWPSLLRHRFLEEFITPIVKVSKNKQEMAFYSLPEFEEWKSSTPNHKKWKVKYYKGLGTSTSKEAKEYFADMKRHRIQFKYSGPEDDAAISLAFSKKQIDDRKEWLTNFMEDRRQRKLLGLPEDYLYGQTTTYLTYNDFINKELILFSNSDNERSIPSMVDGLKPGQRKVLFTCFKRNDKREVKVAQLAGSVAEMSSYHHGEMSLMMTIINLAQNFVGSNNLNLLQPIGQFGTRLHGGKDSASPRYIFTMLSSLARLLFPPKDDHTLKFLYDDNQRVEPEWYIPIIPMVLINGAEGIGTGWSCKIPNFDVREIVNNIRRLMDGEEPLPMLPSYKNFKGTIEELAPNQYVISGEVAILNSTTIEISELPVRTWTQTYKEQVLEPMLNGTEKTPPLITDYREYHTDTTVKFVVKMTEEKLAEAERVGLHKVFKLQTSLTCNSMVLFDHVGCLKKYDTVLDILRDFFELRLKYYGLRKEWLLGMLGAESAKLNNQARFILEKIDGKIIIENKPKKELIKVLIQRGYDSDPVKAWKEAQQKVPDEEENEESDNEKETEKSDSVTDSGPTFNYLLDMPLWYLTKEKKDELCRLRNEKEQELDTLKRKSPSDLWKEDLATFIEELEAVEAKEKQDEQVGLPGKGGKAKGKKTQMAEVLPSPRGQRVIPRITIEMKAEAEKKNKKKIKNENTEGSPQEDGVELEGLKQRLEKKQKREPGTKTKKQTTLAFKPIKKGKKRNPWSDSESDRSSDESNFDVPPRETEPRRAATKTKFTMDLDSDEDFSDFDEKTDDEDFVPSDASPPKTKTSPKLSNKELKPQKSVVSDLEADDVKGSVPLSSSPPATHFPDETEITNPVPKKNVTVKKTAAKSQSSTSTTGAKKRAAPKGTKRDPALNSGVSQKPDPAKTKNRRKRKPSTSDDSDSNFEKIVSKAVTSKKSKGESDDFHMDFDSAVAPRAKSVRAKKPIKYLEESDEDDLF
# Method: Human topoisomerase II decatenation assay: hTopoII decatenation assays were performed as reported in Iacopetta et al.[8].
# Figure 2. hTopoII inhibition assay. kDNA was incubated with human Topoisomerase II in the absence (lane C, vehicle DMSO) or presence of compound 5c (lane 5c) or Ellipticine (lane E) at 10 and 50 µM, respectively. Lane K, kinetoplast DNA (kDNA).
# [1] = system: MCF-10A human mammary epithelial cells; experiment: MTT cell viability, MCF-10A; format: cell-based; details: non-tumoural cells, 72 h exposure, mean ± SD, read-out: Antiproliferative activity IC50, MCF-10a
# From the text: The six cell lines used in this work were purchased from American Type Culture Collection (ATCC, Manassas, VA). MCF-7 human breast cancer cells, oestrogen receptor (ER) positives, were maintained in Dulbecco’s Modified Eagle’s Medium/Nutrient Mixture F-12 Ham (DMEM/F12), supplemented with 5% foetal bovine serum (FBS) and 100 U/ml penicillin/streptomycin, as previously described. MDA-MB-231, human breast cancer cells, oestrogen receptor (ER) negative, were maintained in Dulbecco’s Modified Eagle’s Medium/Nutrient Mixture F-12 Ham (DMEM/F12), supplemented with 5% Newborn Calf Serum (NCS) and 100 U/ml penicillin/streptomycin. HeLa human epithelial cervix carcinoma cells, oestrogen receptor (ER) negative, and ISHIKAWA human endometrial adenocarcinoma cell, oestrogen receptor positive, were maintained in minimum essential medium (MEM), supplemented with 10% FBS, 100 U/ml penicillin/streptomycin and 1% non-essential amino acid. 3T3-L1 cells line of murine fibroblasts of embryonic type, were maintained in DMEM, supplemented with 10% NCS and 100 U/ml penicillin/streptomycin. MCF-10A human mammary epithelial cells were cultured in DMEM/F12 medium, supplemented with 5% horse serum (HS) (Eurobio, Les Ullis, Cedex, France), 100 U/ml penicillin/streptomycin, […] hydrocortisone, 20 ng/ml hEGF (human epidermal growth factor), 10 μg/ml insulin and […] cholera enterotoxin (Sigma-Aldrich, Milano, Italy). Cells were maintained at 37 °C in a humidified atmosphere of 95% air and 5% CO2 and periodically screened for contamination.
# MDA-MB-231, MCF-7, HeLa and ISHIKAWA cells were grown in complete medium and, before being treated, they were serum deprived for 24 h, to allow cell cycle synchronisation. Then cells were grown in phenol red-free medium supplemented with 1% DCC (destran-coated charcoal treated) FBS, then treated with increasing concentrations (0.1, 1, 10, 20, 40, 100 µM) of each compound for 72 h. Compounds were dissolved in dimethylsulphoxide (DMSO) (Sigma, St. Louis, MO) and diluted in each cell medium. Untreated cells, used as a control, were added with DMSO alone (final concentration 0.1%). Cell viability was assessed using the 3-[4,5-dimethylthiazol-2-yl]-2,5-diphenyltetrazolium bromide reagent (MTT), according to the protocol from manufacturer (Sigma-Aldrich, Milan, Italy), as previously described[37] ^, [38]. For each sample, the mean absorbance, measured at 570 nm, was expressed as a percentage of the control and plotted versus drug concentration to determine for each cell line the IC50 values (namely, drugs concentrations able to reduce cell viability of 50% with respect to the control), using GraphPad Prism 5 Software (GraphPad Inc., San Diego, CA)[39]. Each experiment was carried out in quadruplicate. Standard deviations (SD) were shown.
# caspases 3 and 7 = experiment: Caspase-Glo assay, caspases 3/7; format: cell-based, human; details: HeLa cells, concentration equal to IC50, 24 h
# Method: (§1) Caspases-3/7, -8 and -9 activities were measured with the Caspase-Glo Assay, according to the guidelines of manufacturer (Caspase-Glo® 3/7, 8 and 9 Assay Systems, Promega Corporation, Madison, WI) as described in Iacopetta et al.[43].
# caspase-8 = experiment: Caspase-Glo assay, caspase-8; format: cell-based, human; details: HeLa cells, concentration equal to IC50, 24 h
# Method: as §1
# Parp-1 = Parp-1 cleavage immunoblot in HeLa cells; format: cell-based, human; details: 10 µM, 24, 48 and 72 h, western blot
# Method: Cells were serum deprived for 24 h, treated for 24, 48 and 72 h with the compound to be tested. At the end, cells were rinsed twice with ice cold PBS and immediately lysed in lysis buffer (50 mM Tris-HCl, pH 7, 5–8; 150 mM NaCl, 1% Igepal CA-630; 0.1% SDS; 0.5% sodium deoxycholate) containing 1% sodium orthovanadate and 1% phenylmethylsulphonyl fluoride (PMSF). Cell lysates were cleared by centrifugation at 14,000 g for 10 min at 4 °C. Protein concentrations were determined using the Bradford protein assay[40] (Bio-Rad Laboratories, Milan, Italy) according to the directions from the manufacturer. Equal amounts of cell extracts (about 20 µg) were resolved under denaturing conditions by electrophoresis in 10% polyacrylamide gels containing SDS (SDS-PAGE) and transferred to nitrocellulose membranes by electroblotting (GE Healthcare, Piscataway, NJ). […] After incubation with the appropriate secondary antibody (VWR International PBI, MI, Italy) for 1 h at room temperature, the proteins of interest were detected on the membranes by using enhanced chemiluminescence (Amersham ECL Prime Western Blotting Detection Reagent, GE Healthcare, Piscataway, NJ).
smiles,measurement,setting,value
"Cc1ccc(C)c2c1c1cc(Br)ccc1n2CCCCCCCS [5c, 7-(6-Bromo-1,4-dimethyl-9H-carbazol-9-yl)-heptane-1-thiol]",apoptosis / DNA damage (TUNEL),HeLa cells,induced DNA damage and led to cell death triggering the apoptotic mechanism
same,hTopoII inhibition (kDNA decatenation),hTopoII,able to inhibit hTopoII activity
same,IC50,[1],> 100 µM
same,caspases 3 and 7 activity,caspases 3 and 7,clear increase of caspases 3 and 7 activity
same,caspase-8 activity,caspase-8,no increase of caspase-8 activity
same,Parp-1 cleavage (about 89 KDa form),Parp-1,presence of the cleaved form of Parp-1
